One assay deals with T1, STAT6 (Homo sapiens, UniProt P42226).
T1 construct: stably transfected HaCaT keratinocyte cell line, which expresses NanoLuc luciferase reporter gene under the transcriptional control of the STAT6 responsive promoter; endogenous in cells; host or cells: HaCaT keratinocyte reporter cell line (stably transfected with a NanoLuc reporter)
T1 sequence (P42226 1-847): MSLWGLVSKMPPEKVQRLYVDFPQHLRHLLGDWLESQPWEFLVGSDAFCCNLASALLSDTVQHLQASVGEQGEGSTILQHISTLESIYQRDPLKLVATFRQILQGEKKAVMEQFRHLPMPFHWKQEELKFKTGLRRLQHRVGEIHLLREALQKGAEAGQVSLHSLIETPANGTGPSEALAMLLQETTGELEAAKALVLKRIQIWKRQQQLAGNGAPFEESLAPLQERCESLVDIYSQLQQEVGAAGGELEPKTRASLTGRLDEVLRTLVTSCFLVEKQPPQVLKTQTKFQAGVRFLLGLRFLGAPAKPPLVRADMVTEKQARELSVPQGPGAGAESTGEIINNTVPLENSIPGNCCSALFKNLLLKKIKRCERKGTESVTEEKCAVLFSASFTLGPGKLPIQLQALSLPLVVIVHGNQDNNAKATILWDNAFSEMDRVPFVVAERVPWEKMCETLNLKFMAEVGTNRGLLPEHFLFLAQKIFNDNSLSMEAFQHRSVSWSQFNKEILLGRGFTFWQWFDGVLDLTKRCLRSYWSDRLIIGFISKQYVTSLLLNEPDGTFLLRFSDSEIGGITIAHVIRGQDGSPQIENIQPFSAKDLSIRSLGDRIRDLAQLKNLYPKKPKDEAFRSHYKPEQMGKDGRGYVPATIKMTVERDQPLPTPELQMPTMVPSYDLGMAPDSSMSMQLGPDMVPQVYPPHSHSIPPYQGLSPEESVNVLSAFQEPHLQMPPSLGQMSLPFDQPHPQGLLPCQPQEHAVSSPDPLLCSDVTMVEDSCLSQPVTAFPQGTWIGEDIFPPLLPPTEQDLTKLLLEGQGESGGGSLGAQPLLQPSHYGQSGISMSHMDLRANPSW
Kind of assay: STAT6 Reporter Luciferase Assay (IL-13 stimulated HaCaT keratinocyte NanoLuc reporter cells). The following applies: read-out: Reporter EC50. The class given is cell-based. The method, boiled down:
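Luminescence from a NanoLuc reporter driven by the STAT6-responsive IL-13Ra2 promoter in HaCaT keratinocytes serves as the read-out. Compounds are given 2 h before a 4 h stimulation with 0.12 nM IL-13.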

The test system of assay [1] is CCL17 secretion in peripheral human whole blood. Kind of assay: Human Whole Blood (HWB) CCL17 TR-FRET Assay (IL-13 stimulated CCL17 secretion). The class given is cell-based. The method, boiled down: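 IC50 comes from serum CCL17 measured by a TR-FRET sandwich assay (16 h at room temperature, 665/615 nm ratio). Beforehand, blood in sodium heparin was exposed to an 11-point, 3-fold compound series for 2 h at 37°C and then to 10 ng/mL IL-13 for 48 h.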

Where [2] appears, read: IL-13 stimulated HaCaT STAT6 NanoLuc reporter cells.
The mark [3] stands for this setting: Homo sapiens, 48 h, human whole blood, 10 ng/mL IL13, 48 hours.
Setting [4] is: Homo sapiens, 48 h, human whole blood, IL-13 stimulated.
Setting [5] is: STAT6 NanoLuc luciferase reporter, IL-13 stimulated HaCaT keratinocyte cells.
[6] abbreviates: Homo sapiens, 48 h, inhibition of CCL17 secretion in human whole blood, 10 ng/mL IL13, 48 hours.
The mark [7] stands for this setting: human whole blood, IL-13 stimulated, 48 hours.

SMILES strings stand for the structures. pEC50, pIC50: −log10 of the molar value. Where two headings read alike, the source gives them in different places.

As to `CC(n1nc(C(=O)NCc2ccc(NC(=O)N(C)C)cc2)c2c1[C@H](C)CN(c1ccc(C(=O)N(C)C)cn1)C2)C(F)(F)F` (mixture of isomers) [Example 553, (R)-5-(5-(dimethylcarbamoyl)pyridin-2-yl)-N-(4-(3,3-dimethylureido)benzyl)-7-methyl-1-((RS)-1,1,1-trifluoropropan-2-yl)-4,5,6,7-tetrahydro-1H-pyrazolo[4,3-c]pyridine-3-carboxamide], the pEC50 (in general, −log10 of the EC50, conventionally taken in molar units) on STAT6 (setting [2]) is 8.40. In addition, in assay [1] (setting [3]), the pIC50 – broadly, −log10 of the IC50, conventionally taken in molar units – is 7.74.
Take `CCn1nc(C(=O)NCc2ccc(-c3nc(C)c[nH]3)cc2)c2c1[C@@H](C)CN(c1ncc(C(=O)N(C)C)cn1)C2` [Example 397, (S)-5-(5-(dimethylcarbamoyl)pyrimidin-2-yl)-1-ethyl-7-methyl-N-(4-(4-methyl-1H-imidazol-2-yl)benzyl)-4,5,6,7-tetrahydro-1H-pyrazolo[4,3-c]pyridine-3-carboxamide]: on STAT6 (setting [2]), the pEC50 was 9.00. Moreover, the pIC50 in assay [1] (setting [4]) was 8.05.
As for `CNC(=O)c1ccc(CNC(=O)c2nn(C)c3c2CN(c2ccc(C(=O)N(C)C)cc2)CC3)cc1` [Example 4, 5-(4-(Dimethylcarbamoyl)phenyl)-1-methyl-N-(4-(methylcarbamoyl)benzyl)-4,5,6,7-tetrahydro-1H-pyrazolo[4,3-c]pyridine-3-carboxamide], the pEC50 at STAT6 (setting [5]) was 6.75. The pIC50 in assay [1] (setting [6]) is 5.96.
Turning to `CC(C)n1nc(C(=O)NCc2ccc(NC(=O)N3CCC(F)(F)C3)cc2)c2c1[C@@H](C)CN(c1ccc(C(=O)N(C)C)cn1)C2` [Example 590, (S)-N-(4-(3,3-difluoropyrrolidine-1-carboxamido)benzyl)-5-(5-(dimethylcarbamoyl)pyridin-2-yl)-1-isopropyl-7-methyl-4,5,6,7-tetrahydro-1H-pyrazolo[4,3-c]pyridine-3-carboxamide], at STAT6 (setting [2]), the pEC50 is 9.40. In assay [1] (setting [3]), this compound showed a pIC50 of 8.00.
Consider `CC(C)n1nc(C(=O)NCc2ccc(NC(=O)N(C)C)cc2)c2c1CCN(c1ccc(C(=O)N3Cc4cccc(C(=O)N(C)C)c4C3)cn1)C2` [Example 431, 5-(5-(4-(dimethylcarbamoyl)isoindoline-2-carbonyl)pyridin-2-yl)-N-(4-(3,3-dimethylureido)benzyl)-1-isopropyl-4,5,6,7-tetrahydro-1H-pyrazolo[4,3-c]pyridine-3-carboxamide], for which the pEC50 at STAT6 (setting [2]) is 7.92. In addition, the pIC50 in assay [1] (setting [4]) was 7.05.
With `CCC(C)n1nc(C(=O)NCc2ccc(NC(=O)N(C)C)cc2)c2c1[C@@H](C)CN(c1ccc(C(=O)N(C)C)cn1)C2` (single isomer, unassigned) [Example 318, (S)-1-((R*)-sec-butyl)-5-(5-(dimethylcarbamoyl)pyridin-2-yl)-N-(4-(3,3-dimethylureido)benzyl)-7-methyl-4,5,6,7-tetrahydro-1H-pyrazolo[4,3-c]pyridine-3-carboxamide], at STAT6 (setting [2]), the pEC50 was 9.40. Moreover, the negative-log IC50 (pIC50) in assay [1] (setting [7]) is 8.40.
In the case of `CC(C)n1nc(C(=O)NCc2ccc(NC(=O)N3CC[C@H](N(C)C)C3)cc2)c2c1CCN(c1ccc(C(=O)N(C)C)cn1)C2` [Example 170, (S)-N-(4-(3-(dimethylamino)pyrrolidine-1-carboxamido)benzyl)-5-(5-(dimethylcarbamoyl)pyridin-2-yl)-1-isopropyl-4,5,6,7-tetrahydro-1H-pyrazolo[4,3-c]pyridine-3-carboxamide], the pEC50 on STAT6 (setting [5]) was 7.77. The same compound showed a pIC50 in assay [1] (setting [6]) of 7.09.
Turning to `CC(NC(=O)c1nn(C(C)C)c2c1CN(c1ccc(C(=O)N(C)C)cn1)CC2)c1ccc(NC(=O)N(C)C)cc1` (racemic) [Example 81, rac-(R)-5-(5-(dimethylcarbamoyl)pyridin-2-yl)-N-(1-(4-(3,3-dimethylureido)phenyl)ethyl)-1-isopropyl-4,5,6,7-tetrahydro-1H-pyrazolo[4,3-c]pyridine-3-carboxamide], the pEC50 on STAT6 (setting [5]) is 7.47. In assay [1] (setting [6]), this compound showed a pIC50 of 6.94.
As for `CCC1CN(c2ccc(C(=O)N(C)C)cn2)Cc2c(C(=O)NCc3ccc(NC(=O)N(C)C)cc3)nc(C)n21` (single isomer, unassigned) [Example 336, rel-(R or S)-7-(5-(dimethylcarbamoyl)pyridin-2-yl)-N-(4-(3,3-dimethylureido)benzyl)-5-ethyl-3-methyl-5,6,7,8-tetrahydroimidazo[1,5-a]pyrazine-1-carboxamide], the negative logarithm of the EC50 (pEC50) at STAT6 (setting [2]) is 7.85. In assay [1] (setting [4]), this compound showed a pIC50 of 7.39.
Turning to `CC(C)n1nc(C(=O)NCc2ccc(NC(=O)N(C)C)cc2)c2c1CCN(c1ncc(-c3nccn3C)cn1)C2` [Example 34, N-(4-(3,3-Dimethylureido)benzyl)-1-isopropyl-5-(5-(1-methyl-1H-imidazol-2-yl)pyrimidin-2-yl)-4,5,6,7-tetrahydro-1H-pyrazolo[4,3-c]pyridine-3-carboxamide], on STAT6 (setting [5]), the pEC50 was 8.10. In assay [1] (setting [6]), this compound had a pIC50 of 7.15.
Turning to `CC(C)n1nc(C(=O)NCc2ccc(NC(N)=O)cc2)c2c1[C@@H](C)CN(c1ccc(-c3nccn3C)cn1)C2` [Example 516, (S)-1-isopropyl-7-methyl-5-(5-(1-methyl-1H-imidazol-2-yl)pyridin-2-yl)-N-(4-ureidobenzyl)-4,5,6,7-tetrahydro-1H-pyrazolo[4,3-c]pyridine-3-carboxamide], the pEC50 at STAT6 (setting [2]) was 9.00. The pIC50 in assay [1] (setting [4]) was 8.30.
In the case of `CC(C)n1nc(C(=O)NCc2ccc(-c3nnc[nH]3)cc2)c2c1CCN(c1ccc(C(=O)N(C)C)cn1)C2` [Example 40, N-(4-(4H-1,2,4-triazol-3-yl)benzyl)-5-(5-(dimethylcarbamoyl)pyridin-2-yl)-1-isopropyl-4,5,6,7-tetrahydro-1H-pyrazolo[4,3-c]pyridine-3-carboxamide], the pEC50 on STAT6 (setting [5]) was 7.42. Moreover, in assay [1] (setting [6]), the negative logarithm of the IC50 (pIC50) was 6.49.
As to `COCCNC(=O)Nc1ccc(CNC(=O)c2nn(C(C)C)c3c2CN(c2ccc(C(=O)N(C)C)cn2)CC3)cc1` [Example 178, 5-(5-(dimethylcarbamoyl)pyridin-2-yl)-1-isopropyl-N-(4-(3-(2-methoxyethyl)ureido)benzyl)-4,5,6,7-tetrahydro-1H-pyrazolo[4,3-c]pyridine-3-carboxamide], on STAT6 (setting [5]), the negative logarithm of the EC50 (pEC50) was 8.15. Moreover, the pIC50 in assay [1] (setting [6]) was 7.35.
As to `CC(C)n1nc(C(=O)NCc2ccc(NC(=O)N(C)C)cc2)c2c1C(O)CN(c1ccc(C(=O)N(C)C)cn1)C2` (single isomer, unassigned) [Example 475, rel-(R or S)-5-(5-(dimethylcarbamoyl)pyridin-2-yl)-N-(4-(3,3-dimethylureido)benzyl)-7-hydroxy-1-isopropyl-4,5,6,7-tetrahydro-1H-pyrazolo[4,3-c]pyridine-3-carboxamide], the pEC50 on STAT6 (setting [2]) was 7.14. In assay [1] (setting [7]), the pIC50 was 6.67.
For the compound `CCn1nc(C(=O)NCc2ccc(C(=O)NC)cc2)c2c1C(C(F)(F)F)CN(c1ccc(C(=O)N(C)C)cn1)C2` (single isomer, unassigned) [Example 467, rel-(R or S)-5-(5-(dimethylcarbamoyl)pyridin-2-yl)-1-ethyl-N-(4-(methylcarbamoyl)benzyl)-7-(trifluoromethyl)-4,5,6,7-tetrahydro-1H-pyrazolo[4,3-c]pyridine-3-carboxamide], the pEC50 on STAT6 (setting [2]) was 6.50. In assay [1] (setting [7]), this compound showed a pIC50 of 5.60.
Regarding `CC1CN(c2ccc(C(=O)N(C)C)cn2)Cc2c1nn1c2C(=O)N(Cc2ccc(NC(=O)N(C)C)cc2)CC1` (single isomer, unassigned) [Example 280, rel-(R or S)-6-(9-(4-(3,3-dimethylureido)benzyl)-4-methyl-10-oxo-3,4,7,8,9,10-hexahydropyrido[4′,3′:3,4]pyrazolo[1,5-alpyrazin-2(1H)-yl)-N,N-dimethylnicotinamide], the pEC50 at STAT6 (setting [2]) was 8.00. The pIC50 in assay [1] (setting [4]) is 6.87.
The like results for `CNC(=O)Nc1ccc(CNC(=O)c2nn(C(C)C)c3c2CN(c2ccc(C(=O)NC)cn2)CC3)cc1` [Example 454, 1-isopropyl-5-(5-(methylcarbamoyl)pyridin-2-yl)-N-(4-(3-methylureido)benzyl)-4,5,6,7-tetrahydro-1H-pyrazolo[4,3-c]pyridine-3-carboxamide] were, in that order, 6.89 and 6.14.

The values are drawn from patent US20250320213A1, “Nitrogen-Containing Heterocyclic Compounds” (Pfizer Inc., priority 2024, published 2025).
